The supplement of paper PMC10307832

Columns and labels:
Assay in all cases: relative viability (nuclei count vs DMSO), 5 days (fraction); higher = more cells survive
H3255 = test system: H3255
Method in brief: (§1)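 After 5 days of treatment, lung cancer cells in 1536-well plates were fixed and stained in a single step (final 0.05% Triton X-100, 1% formaldehyde, 1 ug/ml Hoechst) and their nuclei counted on 4× images. Treatment had been applied by pin tool the day after seeding as one drug alone or as a fixed anchor-drug dose with five library-drug doses (not always all listed) in √10 steps. Relative viability is the nuclei count of treated wells divided by that of vehicle wells, and values are medians of duplicate plates.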

PC-14 = test system: PC-14
Method in brief: as §1

NCI-H2023 = test system: NCI-H2023
Method in brief: as §1

SW 1573 = test system: SW 1573
Method in brief: as §1

LXF-289 = test system: LXF-289
Method in brief: as §1

NCI-H322M = test system: NCI-H322M
Method in brief: as §1

NCI-H727 = test system: NCI-H727
Method in brief: as §1

NCI-H2126 = test system: NCI-H2126
Method in brief: as §1

SK-LU-1 = test system: SK-LU-1
Method in brief: as §1

NCI-H2009 = test system: NCI-H2009
Method in brief: as §1

EMC-BAC-2 = test system: EMC-BAC-2
Method in brief: as §1

NCI-H2085 = test system: NCI-H2085
Method in brief: as §1

**Q.** With `CC1(C)CCC(c2ccc(Cl)cc2)=C(CN2CCN(c3ccc(C(=O)NS(=O)(=O)c4ccc(N[C@H](CCN5CCOCC5)CSc5ccccc5)c(S(=O)(=O)C(F)(F)F)c4)cc3)CC2)C1` [Navitoclax] + COc1cccc2cc(-c3nc([C@H]4CC[C@H](C(=O)O)CC4)n4ncnc(N)c34)[nH]c12 [OSI-027] (partner 0.5 µM) as the molecule, how does the relative viability (H3255; first compound 0.005 µM) read?
**A.** 0.629

**Q.** And the relative viability (H3255; first compound 0.01581 µM)?
**A.** 0.643

**Q.** What about the relative viability (H3255; first compound 0.05 µM) of the same molecule?
**A.** 0.568

**Q.** And the relative viability (H3255; first compound 0.1581 µM)?
**A.** 0.67

**Q.** What about the relative viability (H3255; first compound 0.5 µM) of the same molecule?
**A.** 0.611

**Q.** What about the relative viability (PC-14; first compound 0.005 µM) of the same molecule?
**A.** 0.735

**Q.** What about the relative viability (PC-14; first compound 0.01581 µM) of the same molecule?
**A.** 1.12

**Q.** What about the relative viability (PC-14; first compound 0.05 µM) of the same molecule?
**A.** 0.767

**Q.** And the relative viability (PC-14; first compound 0.1581 µM)?
**A.** 0.842

**Q.** And the relative viability (PC-14; first compound 0.5 µM)?
**A.** 0.748

**Q.** What about the relative viability (NCI-H2023; first compound 0.005 µM) of the same molecule?
**A.** 0.405

**Q.** What about the relative viability (NCI-H2023; first compound 0.01581 µM) of the same molecule?
**A.** 0.446

**Q.** What about the relative viability (NCI-H2023; first compound 0.05 µM) of the same molecule?
**A.** 0.338

**Q.** What about the relative viability (NCI-H2023; first compound 0.1581 µM) of the same molecule?
**A.** 0.38

**Q.** What about the relative viability (NCI-H2023; first compound 0.5 µM) of the same molecule?
**A.** 0.416

**Q.** What about the relative viability (SW 1573; first compound 0.005 µM) of the same molecule?
**A.** 0.762

**Q.** What about the relative viability (SW 1573; first compound 0.01581 µM) of the same molecule?
**A.** 0.782

**Q.** What about the relative viability (SW 1573; first compound 0.05 µM) of the same molecule?
**A.** 0.638

**Q.** And the relative viability (SW 1573; first compound 0.1581 µM)?
**A.** 0.562

**Q.** And the relative viability (SW 1573; first compound 0.5 µM)?
**A.** 0.576

**Q.** What about the relative viability (LXF-289; first compound 0.005 µM) of the same molecule?
**A.** 0.77

**Q.** And the relative viability (LXF-289; first compound 0.01581 µM)?
**A.** 0.867

**Q.** What about the relative viability (LXF-289; first compound 0.05 µM) of the same molecule?
**A.** 0.731

**Q.** What about the relative viability (LXF-289; first compound 0.1581 µM) of the same molecule?
**A.** 0.753

**Q.** What about the relative viability (LXF-289; first compound 0.5 µM) of the same molecule?
**A.** 0.795

**Q.** What about the relative viability (NCI-H322M; first compound 0.005 µM) of the same molecule?
**A.** 0.536

**Q.** And the relative viability (NCI-H322M; first compound 0.01581 µM)?
**A.** 0.696

**Q.** What about the relative viability (NCI-H322M; first compound 0.05 µM) of the same molecule?
**A.** 0.552

**Q.** What about the relative viability (NCI-H322M; first compound 0.1581 µM) of the same molecule?
**A.** 0.545

**Q.** And the relative viability (NCI-H322M; first compound 0.5 µM)?
**A.** 0.706

**Q.** And the relative viability (NCI-H727; first compound 0.005 µM)?
**A.** 0.675

**Q.** What about the relative viability (NCI-H727; first compound 0.01581 µM) of the same molecule?
**A.** 0.692

**Q.** What about the relative viability (NCI-H727; first compound 0.1581 µM) of the same molecule?
**A.** 0.663

**Q.** And the relative viability (NCI-H727; first compound 0.5 µM)?
**A.** 0.728

**Q.** What about the relative viability (NCI-H2126; first compound 0.005 µM) of the same molecule?
**A.** 0.764

**Q.** What about the relative viability (NCI-H2126; first compound 0.01581 µM) of the same molecule?
**A.** 0.849

**Q.** What about the relative viability (NCI-H2126; first compound 0.1581 µM) of the same molecule?
**A.** 0.72

**Q.** And the relative viability (NCI-H2126; first compound 0.5 µM)?
**A.** 0.716

**Q.** What about the relative viability (SK-LU-1; first compound 0.005 µM) of the same molecule?
**A.** 0.374

**Q.** And the relative viability (SK-LU-1; first compound 0.01581 µM)?
**A.** 0.429

**Q.** And the relative viability (SK-LU-1; first compound 0.05 µM)?
**A.** 0.347

**Q.** And the relative viability (SK-LU-1; first compound 0.1581 µM)?
**A.** 0.374

**Q.** And the relative viability (SK-LU-1; first compound 0.5 µM)?
**A.** 0.319

**Q.** What about the relative viability (NCI-H2009; first compound 0.005 µM) of the same molecule?
**A.** 0.598

**Q.** And the relative viability (NCI-H2009; first compound 0.01581 µM)?
**A.** 0.792

**Q.** And the relative viability (NCI-H2009; first compound 0.05 µM)?
**A.** 0.576

**Q.** What about the relative viability (NCI-H2009; first compound 0.1581 µM) of the same molecule?
**A.** 0.643

**Q.** What about the relative viability (NCI-H2009; first compound 0.5 µM) of the same molecule?
**A.** 0.735

**Q.** What about the relative viability (EMC-BAC-2; first compound 0.005 µM) of the same molecule?
**A.** 0.392

**Q.** What about the relative viability (EMC-BAC-2; first compound 0.01581 µM) of the same molecule?
**A.** 0.362

**Q.** What about the relative viability (EMC-BAC-2; first compound 0.05 µM) of the same molecule?
**A.** 0.382

**Q.** And the relative viability (EMC-BAC-2; first compound 0.1581 µM)?
**A.** 0.351

**Q.** What about the relative viability (EMC-BAC-2; first compound 0.5 µM) of the same molecule?
**A.** 0.372

**Q.** What about the relative viability (NCI-H2085; first compound 0.005 µM) of the same molecule?
**A.** 0.664

**Q.** And the relative viability (NCI-H2085; first compound 0.01581 µM)?
**A.** 0.871
